According to US20230065158A1, “OXABICYCLOHEPTANES FOR TREATMENT OF SMALL CELL LUNG CANCER” (Lixte Biotechnology, Inc., priority 2021, published 2023):

Biological target: T1, PP2A (Homo sapiens, UniProt P67775)
T1 construct: endogenous in cells; host or cells: H524 (human SCLC) cells
Test: PP2A immunoprecipitation Ser/Thr phosphatase activity assay in treated H524 cells
Assay type: cell-based
Details: LB-100 5 μM, 24 h, H524 cells
Protocol: FIGS. 1A-IL depict the effects of LB-100 on PP2A-A expression in SCLC tumors and cells. […] A Mann-Whitney U test was used for comparison between the normal and SCLC samples. FIG. 1B: IHC for PP2A was conducted on TMA tissue sections and images were captured at 4× or 20× using a 3D-Histech PANNORAMIC SCAN whole slide scanner (3D-Histech, Budapest, Hungary). […] TMAs were scored in normal (n=24) and tumor (n=79) cores on a scale from 0 (no staining/no protein expression) to 3+(strong staining/high protein expression). FIG. 1C: Summary bar graph of the average PP2A subunit staining. IHC staining intensity of normal and tumor cores. There was a statistically significant difference between normal and tumor tissue (p<0.001). FIG. 1D: In order to compare the expression of PP2A subunits A and C, cell lysates from seven SCLC cell lines and HBEC 3KT (non-malignant cell line) were subjected to western blotting. FIG. 1E: PP2A activity was determined using a serine/threonine phosphatase activity assay (Millipore) after 24 h exposure to cantharidin (10 μM) and LB-100 (5 μM). […] LB-100 alone or in combination with carboplatin inhibited proliferation and colony formation in SCLC cells. The Cell Counting Kit-8 assay detected cell H524 and H69 cell viability. […] FIGS. 1I-1K: Graphs depict the mean+SEM of percent viability for cells (n=3). […]

T1 sequence (P67775 whole entry): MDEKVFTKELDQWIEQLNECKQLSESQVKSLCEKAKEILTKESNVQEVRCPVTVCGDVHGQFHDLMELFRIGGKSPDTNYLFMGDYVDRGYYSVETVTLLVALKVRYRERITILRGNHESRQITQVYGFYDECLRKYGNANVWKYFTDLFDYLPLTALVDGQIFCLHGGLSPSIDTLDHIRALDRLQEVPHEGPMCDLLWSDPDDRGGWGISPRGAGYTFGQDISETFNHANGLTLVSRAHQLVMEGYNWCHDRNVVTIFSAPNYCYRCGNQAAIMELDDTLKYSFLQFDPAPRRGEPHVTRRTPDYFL
T1 sequence (P30153 whole entry partner): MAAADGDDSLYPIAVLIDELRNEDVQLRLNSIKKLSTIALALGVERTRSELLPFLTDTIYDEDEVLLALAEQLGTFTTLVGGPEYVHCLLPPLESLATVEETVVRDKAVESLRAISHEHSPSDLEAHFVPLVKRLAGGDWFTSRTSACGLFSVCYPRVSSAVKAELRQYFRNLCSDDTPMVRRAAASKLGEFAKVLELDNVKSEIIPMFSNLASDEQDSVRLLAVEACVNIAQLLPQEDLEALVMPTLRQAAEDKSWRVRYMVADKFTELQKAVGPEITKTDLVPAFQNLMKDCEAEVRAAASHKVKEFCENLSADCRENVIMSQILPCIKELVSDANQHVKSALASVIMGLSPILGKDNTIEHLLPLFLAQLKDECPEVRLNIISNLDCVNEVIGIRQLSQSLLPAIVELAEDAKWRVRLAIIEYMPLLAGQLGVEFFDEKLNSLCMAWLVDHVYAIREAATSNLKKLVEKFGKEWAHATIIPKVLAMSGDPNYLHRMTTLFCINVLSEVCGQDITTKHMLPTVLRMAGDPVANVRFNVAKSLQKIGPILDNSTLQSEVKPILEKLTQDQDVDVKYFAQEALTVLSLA

C[NH+]1CCN(C(=O)C2C(C(=O)O)[C@H]3CC[C@@H]2O3)CC1 (stereo in doubt) [LB-100, 3-[(4-Methylpiperazin-1-yl)carbonyl]-7-oxabicyclo[2.2.1]heptane-2-carboxylic acid]
phosphatase activity inhibited to: 65%
